The results in this text go back to PMC6193938, “Characterization of a novel AICARFT inhibitor which potently elevates ZMP and has anti-tumor activity in murine models” (Scientific Reports, 2018).

What all share (test): CEREP protein kinase assay
Type in all cases: biochemical

For assay [1], the target named is T1, PKAa (Homo sapiens, UniProt P17612).
T1 construct: purchased CEREP Panlabs (Eurofins)

Assay [2] concerns the target T2, MLK1 (Homo sapiens, UniProt P80192).
T2 construct: purchased CEREP Panlabs (Eurofins)

The target in assay [3] is T3, RSK1 (Homo sapiens, UniProt Q15418).
T3 construct: purchased CEREP Panlabs (Eurofins)
T3 sequence (Q15418 whole entry): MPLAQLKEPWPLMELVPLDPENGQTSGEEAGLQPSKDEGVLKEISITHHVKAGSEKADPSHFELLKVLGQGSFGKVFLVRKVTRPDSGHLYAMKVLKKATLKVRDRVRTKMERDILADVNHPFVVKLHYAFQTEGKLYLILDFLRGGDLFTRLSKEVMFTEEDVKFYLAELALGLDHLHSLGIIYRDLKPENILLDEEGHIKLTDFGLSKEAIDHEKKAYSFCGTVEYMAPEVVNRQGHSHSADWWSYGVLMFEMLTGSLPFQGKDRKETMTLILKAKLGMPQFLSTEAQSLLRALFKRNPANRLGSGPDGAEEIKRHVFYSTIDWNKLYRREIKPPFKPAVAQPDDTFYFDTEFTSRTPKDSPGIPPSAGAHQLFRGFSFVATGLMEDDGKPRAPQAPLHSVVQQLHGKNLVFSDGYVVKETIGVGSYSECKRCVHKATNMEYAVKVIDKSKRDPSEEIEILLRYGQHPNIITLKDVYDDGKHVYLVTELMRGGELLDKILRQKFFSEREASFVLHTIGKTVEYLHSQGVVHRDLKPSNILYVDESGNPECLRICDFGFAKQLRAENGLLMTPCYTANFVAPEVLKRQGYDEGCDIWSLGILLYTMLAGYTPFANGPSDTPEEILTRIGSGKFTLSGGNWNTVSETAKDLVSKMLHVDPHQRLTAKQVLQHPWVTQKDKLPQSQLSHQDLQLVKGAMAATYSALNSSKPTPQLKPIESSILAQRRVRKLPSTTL

The target in assay [4] is T4, PDGFRa (Homo sapiens, UniProt P16234).
T4 construct: purchased CEREP Panlabs (Eurofins)
T4 sequence (P16234 24-1089): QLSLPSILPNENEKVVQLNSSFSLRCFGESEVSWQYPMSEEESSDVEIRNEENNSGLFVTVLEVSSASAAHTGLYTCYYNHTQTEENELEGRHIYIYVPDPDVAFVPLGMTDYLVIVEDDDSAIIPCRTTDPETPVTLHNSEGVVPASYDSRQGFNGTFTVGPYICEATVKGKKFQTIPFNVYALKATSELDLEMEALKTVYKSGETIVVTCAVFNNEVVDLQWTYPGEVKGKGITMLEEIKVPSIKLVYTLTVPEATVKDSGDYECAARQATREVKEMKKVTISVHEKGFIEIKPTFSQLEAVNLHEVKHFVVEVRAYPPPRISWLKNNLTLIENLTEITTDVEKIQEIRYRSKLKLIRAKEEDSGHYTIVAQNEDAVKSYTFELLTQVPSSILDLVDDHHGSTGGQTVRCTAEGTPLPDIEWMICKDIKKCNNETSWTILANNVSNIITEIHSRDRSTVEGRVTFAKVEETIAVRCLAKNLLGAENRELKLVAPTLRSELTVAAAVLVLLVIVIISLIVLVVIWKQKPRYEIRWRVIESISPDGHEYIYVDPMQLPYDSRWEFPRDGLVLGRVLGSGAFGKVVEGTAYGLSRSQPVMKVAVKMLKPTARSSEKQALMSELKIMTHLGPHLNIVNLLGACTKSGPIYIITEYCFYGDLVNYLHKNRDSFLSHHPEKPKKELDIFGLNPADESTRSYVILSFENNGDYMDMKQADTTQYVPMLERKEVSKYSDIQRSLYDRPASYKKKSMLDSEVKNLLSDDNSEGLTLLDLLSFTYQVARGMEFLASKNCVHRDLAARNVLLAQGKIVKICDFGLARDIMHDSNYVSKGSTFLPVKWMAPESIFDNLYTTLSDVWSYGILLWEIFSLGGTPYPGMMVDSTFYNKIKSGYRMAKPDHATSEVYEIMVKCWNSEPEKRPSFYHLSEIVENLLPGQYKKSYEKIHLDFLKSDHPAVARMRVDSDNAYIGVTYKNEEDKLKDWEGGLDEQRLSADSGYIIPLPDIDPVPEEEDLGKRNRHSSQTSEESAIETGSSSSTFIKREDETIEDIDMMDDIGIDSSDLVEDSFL

The target of assay [5] is T5, AKT1 (Homo sapiens, UniProt P31749).
T5 construct: purchased CEREP Panlabs (Eurofins)
T5 sequence (P31749 whole entry): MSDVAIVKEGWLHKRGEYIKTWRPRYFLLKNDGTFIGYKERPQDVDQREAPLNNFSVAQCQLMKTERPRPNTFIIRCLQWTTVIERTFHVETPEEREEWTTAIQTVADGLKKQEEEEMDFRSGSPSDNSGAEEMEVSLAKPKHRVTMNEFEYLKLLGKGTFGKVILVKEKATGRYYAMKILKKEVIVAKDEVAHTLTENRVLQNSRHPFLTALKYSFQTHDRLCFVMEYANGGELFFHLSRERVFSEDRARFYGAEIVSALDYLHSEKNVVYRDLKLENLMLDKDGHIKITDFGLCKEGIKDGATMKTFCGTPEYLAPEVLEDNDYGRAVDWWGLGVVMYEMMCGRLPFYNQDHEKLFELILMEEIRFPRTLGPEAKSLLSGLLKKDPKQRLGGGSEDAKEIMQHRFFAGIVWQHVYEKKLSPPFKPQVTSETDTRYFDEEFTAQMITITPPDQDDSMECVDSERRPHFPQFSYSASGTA

Assay [6] concerns the target T6, CDK2 (Homo sapiens, UniProt P24941).
T6 construct: purchased CEREP Panlabs (Eurofins)

Assay [7] addresses T7, FLT1 (Homo sapiens, UniProt P17948).
T7 construct: purchased CEREP Panlabs (Eurofins)

T7 sequence (P17948 27-1338): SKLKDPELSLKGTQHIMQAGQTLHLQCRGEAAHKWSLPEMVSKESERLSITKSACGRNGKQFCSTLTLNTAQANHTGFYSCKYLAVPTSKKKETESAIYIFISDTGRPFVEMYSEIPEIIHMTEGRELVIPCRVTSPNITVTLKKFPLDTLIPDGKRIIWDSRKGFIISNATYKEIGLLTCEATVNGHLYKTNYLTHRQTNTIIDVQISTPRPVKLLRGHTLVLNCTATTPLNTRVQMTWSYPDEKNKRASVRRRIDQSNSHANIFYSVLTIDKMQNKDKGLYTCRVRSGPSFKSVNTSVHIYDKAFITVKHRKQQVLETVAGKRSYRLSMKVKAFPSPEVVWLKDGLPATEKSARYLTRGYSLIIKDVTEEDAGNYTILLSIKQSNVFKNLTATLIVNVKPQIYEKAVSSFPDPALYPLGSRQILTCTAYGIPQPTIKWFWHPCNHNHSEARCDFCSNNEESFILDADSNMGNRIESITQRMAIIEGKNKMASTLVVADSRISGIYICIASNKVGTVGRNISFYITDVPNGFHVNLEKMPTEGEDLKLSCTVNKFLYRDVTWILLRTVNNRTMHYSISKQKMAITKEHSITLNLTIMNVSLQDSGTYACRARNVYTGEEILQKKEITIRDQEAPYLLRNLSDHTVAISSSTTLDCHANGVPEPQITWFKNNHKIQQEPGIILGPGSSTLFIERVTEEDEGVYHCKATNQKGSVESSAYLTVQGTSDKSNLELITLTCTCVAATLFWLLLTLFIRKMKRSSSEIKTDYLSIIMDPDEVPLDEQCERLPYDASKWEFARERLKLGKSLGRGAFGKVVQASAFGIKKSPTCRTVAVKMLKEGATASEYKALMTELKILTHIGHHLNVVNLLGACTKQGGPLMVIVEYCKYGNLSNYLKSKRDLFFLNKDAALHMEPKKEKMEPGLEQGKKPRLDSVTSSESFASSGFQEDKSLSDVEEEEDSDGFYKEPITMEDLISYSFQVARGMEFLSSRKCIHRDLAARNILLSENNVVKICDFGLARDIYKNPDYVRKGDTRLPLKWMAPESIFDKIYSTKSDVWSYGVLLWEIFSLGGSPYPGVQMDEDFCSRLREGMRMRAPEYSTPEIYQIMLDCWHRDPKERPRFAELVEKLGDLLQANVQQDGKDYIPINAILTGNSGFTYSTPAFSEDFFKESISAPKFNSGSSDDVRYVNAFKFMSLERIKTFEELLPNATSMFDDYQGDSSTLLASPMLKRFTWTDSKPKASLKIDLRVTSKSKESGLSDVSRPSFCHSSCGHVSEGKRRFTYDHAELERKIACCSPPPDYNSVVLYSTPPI
T2 sequence (P80192 whole entry): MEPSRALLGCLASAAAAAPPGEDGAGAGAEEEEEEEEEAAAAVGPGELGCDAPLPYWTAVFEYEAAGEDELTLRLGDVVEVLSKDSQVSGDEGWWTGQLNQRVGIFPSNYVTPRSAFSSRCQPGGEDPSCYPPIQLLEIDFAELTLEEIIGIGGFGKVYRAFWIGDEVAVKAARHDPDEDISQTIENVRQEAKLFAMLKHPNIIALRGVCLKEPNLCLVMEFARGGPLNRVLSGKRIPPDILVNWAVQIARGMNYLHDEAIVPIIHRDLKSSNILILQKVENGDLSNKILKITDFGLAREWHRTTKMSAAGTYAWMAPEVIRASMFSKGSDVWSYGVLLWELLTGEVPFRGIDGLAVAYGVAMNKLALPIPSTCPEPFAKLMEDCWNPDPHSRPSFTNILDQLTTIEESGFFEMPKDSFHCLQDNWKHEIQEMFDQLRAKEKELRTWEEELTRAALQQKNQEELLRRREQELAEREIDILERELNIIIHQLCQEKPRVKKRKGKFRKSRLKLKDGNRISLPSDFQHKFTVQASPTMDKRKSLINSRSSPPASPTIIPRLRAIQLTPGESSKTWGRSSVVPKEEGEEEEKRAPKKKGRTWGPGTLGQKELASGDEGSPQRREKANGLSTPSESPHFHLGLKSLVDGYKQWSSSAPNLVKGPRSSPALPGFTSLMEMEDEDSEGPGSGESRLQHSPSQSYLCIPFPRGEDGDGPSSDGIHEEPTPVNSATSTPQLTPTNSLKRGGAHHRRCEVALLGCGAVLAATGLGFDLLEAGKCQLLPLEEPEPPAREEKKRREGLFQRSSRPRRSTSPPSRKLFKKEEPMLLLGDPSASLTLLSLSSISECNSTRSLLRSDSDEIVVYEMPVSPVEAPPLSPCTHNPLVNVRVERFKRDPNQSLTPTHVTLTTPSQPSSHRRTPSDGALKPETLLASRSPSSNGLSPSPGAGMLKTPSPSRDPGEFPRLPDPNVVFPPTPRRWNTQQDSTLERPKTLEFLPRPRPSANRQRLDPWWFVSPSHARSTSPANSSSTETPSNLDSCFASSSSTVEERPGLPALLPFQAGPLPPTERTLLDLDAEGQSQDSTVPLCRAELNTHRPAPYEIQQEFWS

One may read the inhibition as the drop in the measured response relative to a control, in per cent. For the molecule `O=c1[nH]ccc2cc(F)c(NS(=O)(=O)c3ccc(N4CC[C@@H](O)C4)s3)cc12` [LSN3213128, N-(6-Fluoro-1-oxo-1,2-dihydroisoquinolin-7-yl)-5-[(3R)-3-hydroxypyrrolidin-1-yl]thiophene-2-sulfonamide], the inhibition at 0.2 µM is -7.44% in assay [1] (@ 0.2 uM); -7.95% in assay [2] (@ 0.2 uM); 0.638% in assay [3] (@ 0.2 uM); -10.5% in assay [4] (@ 0.2 uM); -1.76% in assay [5] (@ 0.2 uM); -10.2% in assay [6] (@ 0.2 uM). Besides, the inhibition at 0.2 µM in assay [7] (@ 0.2 uM) was -9.26%. For the same molecule, the inhibition at 2 µM was -0.808% in assay [1] (@ 2 uM); 2.73% in assay [2] (@ 2 uM); 8.18% in assay [3] (@ 2 uM); 12.3% in assay [4] (@ 2 uM); 5.52% in assay [5] (@ 2 uM); -1.29% in assay [6] (@ 2 uM). The inhibition at 2 µM in assay [7] (@ 2 uM) is 4.29%. Moreover, the inhibition at 20 µM in assay [1] (@ 20 uM) was 3.8%; in assay [2] (@ 20 uM) it was 3.99%; in assay [3] (@ 20 uM), 11.4%; in assay [4] (@ 20 uM), 44.9%; in assay [5] (@ 20 uM) it was -6.9%; in assay [6] (@ 20 uM) it was 29.2%. In assay [7] (@ 20 uM), the inhibition at 20 µM is 33.8%.
